Experimental data as given in ChEMBL document CHEMBL1649502, “Characterization of cefoxitin-resistant Escherichia coli isolates from recreational beaches and private drinking water in Canada between 2004 and 2006” (2009).

Tested on: Escherichia coli
Assay: Antibacterial activity against cefoxitin-resistant Escherichia coli by microdilution method
Assay type: functional

SMILES | MIC [µg/mL]
CO[C@@]1(NC(=O)Cc2cccs2)C(=O)N2C(C(=O)O)=C(COC(N)=O)CS[C@@H]21 [CEFOXITIN] | ≥ 16
CO/N=C(\C(=O)N[C@@H]1C(=O)N2C(C(=O)O)=C(CSC(=O)c3ccco3)CS[C@H]12)c1csc(N)n1 [CEFTIOFUR] | ≥ 8
CN[C@@H]1[C@H](O[C@H]2[C@H](O[C@H]3[C@H](O)[C@@H](O)[C@H](N=C(N)N)[C@@H](O)[C@@H]3N=C(N)N)O[C@@H](C)[C@]2(O)C=O)O[C@@H](CO)[C@H](O)[C@H]1O [STREPTOMYCIN] | ≥ 64
